Assay [1] addresses T1, MAO-A (Rattus norvegicus, UniProt P21396).
T1 construct: human and rat tissue to obtain the isolated forms of monoamine oxidase A and B; from tissue
T1 sequence (P21396 1-526): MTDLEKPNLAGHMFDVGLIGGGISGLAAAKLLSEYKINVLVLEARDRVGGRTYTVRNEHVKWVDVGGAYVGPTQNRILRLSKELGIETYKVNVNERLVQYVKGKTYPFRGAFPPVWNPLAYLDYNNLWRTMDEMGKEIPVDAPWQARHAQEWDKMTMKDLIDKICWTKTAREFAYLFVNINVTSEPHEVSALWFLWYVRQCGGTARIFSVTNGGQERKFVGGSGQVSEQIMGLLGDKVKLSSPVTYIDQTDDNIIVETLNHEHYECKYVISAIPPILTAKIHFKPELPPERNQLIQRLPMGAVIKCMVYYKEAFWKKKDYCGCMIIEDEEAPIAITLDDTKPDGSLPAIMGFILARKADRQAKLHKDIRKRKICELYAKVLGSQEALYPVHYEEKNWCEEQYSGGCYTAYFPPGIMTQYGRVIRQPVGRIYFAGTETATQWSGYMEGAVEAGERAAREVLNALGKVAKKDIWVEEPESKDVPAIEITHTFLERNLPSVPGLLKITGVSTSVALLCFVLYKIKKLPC
Put plainly: Kinetic parameters of suicide-type inhibition, MAO-A. The conditions noted are these: for K^1cat / K1(10^-3) / K^1cat: MAO-A; for K^1cat / K1(10^-3): inhibition efficacy; for K^1cat: velocity constant for formation of the covalent irreversible complex, ± SEM. It counts as biochemical, Sprague-Dawley rat. From the text:
Based on the apparent velocity constants of the first order (kapp) obtained for each inhibitor, calculations were made of the K1 and K^1c at (according to the method described by M. Avila et al. 1993, Biochem Pharmac 45, 2231-2237). K1 is the affinity constant of the first stage of the reaction and K1 MAO-A / K1 MAO-B the expression of the selectivity.
(§1) K^1cat is the velocity constant for the formation of the covalent irreversible complex during the second stage of the process. To compare the values of these constants towards the two forms of MAO, we express the inhibition efficacy as the ratio K^1cat/K1. The value of these constants (see Tables 2 and 3), is the result of three different experiments, with their corresponding SEM.

The target of assay [2] is T2, MAO-B (Rattus norvegicus, UniProt P19643).
T2 construct: from tissue; host or cells: Sprague-Dawley rat liver, mitochondrial fraction
T2 sequence (P19643 1-520): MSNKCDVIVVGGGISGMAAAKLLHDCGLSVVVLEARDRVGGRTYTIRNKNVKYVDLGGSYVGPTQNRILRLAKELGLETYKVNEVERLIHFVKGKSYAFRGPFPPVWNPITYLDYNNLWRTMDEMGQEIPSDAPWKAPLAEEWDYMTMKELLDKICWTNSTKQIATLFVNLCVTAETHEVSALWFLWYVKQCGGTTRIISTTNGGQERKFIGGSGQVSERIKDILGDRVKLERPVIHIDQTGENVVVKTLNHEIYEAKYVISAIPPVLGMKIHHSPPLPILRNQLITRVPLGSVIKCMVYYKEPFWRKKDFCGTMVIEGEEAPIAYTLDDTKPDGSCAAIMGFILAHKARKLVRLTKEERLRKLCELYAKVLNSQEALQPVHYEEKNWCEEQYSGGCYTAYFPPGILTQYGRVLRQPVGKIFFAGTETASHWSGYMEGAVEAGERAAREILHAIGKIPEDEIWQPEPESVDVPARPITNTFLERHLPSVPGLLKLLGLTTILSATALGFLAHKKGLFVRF
The assay is described as follows: MAO-B inhibition, mitochondrial portion of rat (IC50, time dependence, irreversibility), substrate PEA. It counts as biochemical, Sprague-Dawley rat. The conditions noted are these: MAO-B (lines B..), substrate PEA, rat mitochondria. How it is done:
(§2) The mitochondrial portion of Sprague-Dawley rat was used to determine the MAO-A and MAO-B activity.
(§3) Determinations were made of the comparative MAO-A and MAO-B activity inhibition curves of the various compounds under study at time 0 and 30 min. by measuring the remaining activity to 5-HT and PEA as substrates.

For assay [3], the target named is T1, MAO-A. Put plainly: biochemical. It counts as biochemical, Sprague-Dawley rat. How it is done: as §2, §3
Assay [4] has as its target T2, MAO-B. The assay is described as follows: Kinetic parameters of suicide-type inhibition, MAO-B (selectivity K1 MAO-A / K1 MAO-B). It is filed as biochemical, Sprague-Dawley rat. The conditions noted are these: selectivity for MAO-B.
Description: K1 is the affinity constant of the first stage of the reaction and K1 MAO-A / K1 MAO-B the expression of the selectivity.
as §1

For assay [5], the target named is T3, MAO-A (Mus musculus, UniProt Q64133).
T3 construct: the brains homogenised in potassium phosphate buffer 50 mM, pH 7.2; from tissue; host or cells: C57/BL mouse brain homogenate
T3 sequence (Q64133 1-526): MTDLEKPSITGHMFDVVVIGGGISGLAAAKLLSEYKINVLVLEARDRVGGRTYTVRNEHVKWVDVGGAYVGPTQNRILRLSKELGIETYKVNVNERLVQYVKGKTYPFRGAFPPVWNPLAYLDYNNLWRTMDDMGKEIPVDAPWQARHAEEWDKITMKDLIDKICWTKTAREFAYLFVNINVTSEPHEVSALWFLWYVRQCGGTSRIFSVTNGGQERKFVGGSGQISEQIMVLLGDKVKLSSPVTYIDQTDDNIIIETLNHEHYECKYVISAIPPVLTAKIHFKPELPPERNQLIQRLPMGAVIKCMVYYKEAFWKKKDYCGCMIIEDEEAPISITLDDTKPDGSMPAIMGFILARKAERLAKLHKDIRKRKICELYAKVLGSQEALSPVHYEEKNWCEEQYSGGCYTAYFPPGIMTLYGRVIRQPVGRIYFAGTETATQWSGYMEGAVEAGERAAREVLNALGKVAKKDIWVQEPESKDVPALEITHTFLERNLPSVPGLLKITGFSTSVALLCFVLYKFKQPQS
Put plainly: Ex vivo inhibition of brain MAO-A after i.p. administration. It counts as in vivo, C57/BL mice. The conditions noted are these: mouse brain homogenate 2 hours after i.p., l-deprenyl 10 mg/Kg, tested compound 4 mg/Kg. How it is done: The pharmacological assays were carried out on C57/BL mice. These animals are sensitive to the induction of the symptomatology of Parkinson's disease through the action of MPTP.
The animals were sacrificed by decapitation after 2 hours and the brains homogenised in potassium phosphate buffer 50 mM, pH 7.2. Determinations were made of the MAO-A and MAO-B activity in each case using radiometric methods.

The target of assay [6] is T4, dopamine carrier (Homo sapiens, UniProt Q01959).
T4 construct: This assay was carried out in purified synaptosomes of human caudate; from tissue; host or cells: post-mortem human caudate, purified synaptosomes
The assay is described as follows: Dopamine carrier inhibition in purified synaptosomes of human caudate. It counts as biochemical. The protocol: This assay was carried out in purified synaptosomes of human caudate obtained using the same method as described by Rodríguez et al. 1987 Biochem Pharmac 36, 974-976.
The studies were carried out with the same inhibitors used in the rat tissue. The dopamine (DA) concentration was 0.1 µM, a value chosen from the kinetic constants obtained.

Setting [7] is: MAO-A (A..), affinity constant of the first stage, three experiments ± SEM, read-out: K1.
Where [8] appears, read: IC50 30 min., 30 min incubation.
Setting [9] is: 0 min incubation, read-out: IC50 0 min.
Setting [10] is: IC50 30 min., MAO-A (lines A..), substrate 5-HT, 30 min incubation, rat mitochondria.
[11] abbreviates: MAO-A (lines A..), substrate 5-HT, 0 min incubation, rat mitochondria, read-out: IC50 0 min.
Where [12] appears, read: read-out: IC50 30 min., MAO-A (lines A..), substrate 5-HT, 30 min incubation, rat mitochondria.

Where two headings read alike, the source gives them in different places.

T4 sequence (Q01959 whole entry): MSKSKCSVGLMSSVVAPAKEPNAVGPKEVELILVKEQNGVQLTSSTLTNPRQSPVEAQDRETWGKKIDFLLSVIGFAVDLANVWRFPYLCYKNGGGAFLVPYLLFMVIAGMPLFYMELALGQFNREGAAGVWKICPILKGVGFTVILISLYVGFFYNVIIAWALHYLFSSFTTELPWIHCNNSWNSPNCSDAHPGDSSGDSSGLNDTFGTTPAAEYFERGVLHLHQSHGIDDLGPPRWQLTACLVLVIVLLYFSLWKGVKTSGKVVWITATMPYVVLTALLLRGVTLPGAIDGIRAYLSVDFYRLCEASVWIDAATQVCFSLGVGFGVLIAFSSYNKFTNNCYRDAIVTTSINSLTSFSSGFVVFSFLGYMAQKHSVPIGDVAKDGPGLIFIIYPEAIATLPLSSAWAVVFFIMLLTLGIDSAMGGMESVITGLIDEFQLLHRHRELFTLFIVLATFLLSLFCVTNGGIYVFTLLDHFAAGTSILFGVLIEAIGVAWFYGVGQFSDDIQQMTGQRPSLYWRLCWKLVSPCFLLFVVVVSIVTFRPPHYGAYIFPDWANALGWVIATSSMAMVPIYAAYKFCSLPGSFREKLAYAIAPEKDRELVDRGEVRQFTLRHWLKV

Regarding `C=C=CCN(CC=C=C)Cc1cc2cc(OCc3ccccc3)ccc2[nH]1` [FA-78], in assay [1] (setting [7]), the Ki came to 14100 nM. In assay [1], the “K^1cat / K1(10^-3)” value is reported as 0.014 10^-3. In addition, the “K^1cat” value in assay [1] is 0.2 ± 0.04 min⁻¹. Besides, the IC50 (in general, the concentration that gives 50% inhibition) stood at 190 nM in assay [2] (setting [8]), 3100 nM in assay [2] (setting [9]), 6300 nM in assay [3] (setting [10]) and 120000 nM in assay [3] (setting [11]). Moreover, the “K1 MAO-A/K1 MAO-B” value in assay [4] was 913.6.
As to `CC#CCNCc1cc2cc(OCc3ccccc3)ccc2[nH]1` [FA-74], the Ki in assay [1] (setting [7]) is 5250 nM. Also, the “K^1cat / K1(10^-3)” value in assay [1] was 0.04 10^-3. Besides, the “K^1cat” value in assay [1] was 0.21 ± 0.1 min⁻¹. Also, the IC50 worked out at 250 nM in assay [2] (setting [8]), 1580 nM in assay [2] (setting [9]), 10000 nM in assay [3] (setting [10]) and 63000 nM in assay [3] (setting [11]). The “K1 MAO-A/K1 MAO-B” value in assay [4] stood at 276.4.
Consider `CC#CCN(CC#CC)Cc1cc2cc(OCc3ccccc3)ccc2[nH]1` [FA-77], for which the Ki in assay [1] (setting [7]) worked out at 6520 nM. Besides, the “K^1cat / K1(10^-3)” value in assay [1] is 0.014 10^-3. For the same compound, the “K^1cat” value in assay [1] was 0.09 ± 0.002 min⁻¹. Besides, the concentration for half-maximal inhibition (IC50) was determined as 10 nM in assay [2] (setting [8]), 25000 nM in assay [2] (setting [9]), 5000 nM in assay [3] (setting [10]) and 39000 nM in assay [3] (setting [11]). Besides, in assay [4], the “K1 MAO-A/K1 MAO-B” value stood at 41.5.
Take `CC#CCN(C)Cc1cc2cc(OCc3ccccc3)ccc2[nH]1` [FA-88]: in assay [1], the Ki is 13.9 nM and the “K^1cat” value worked out at 0.04 ± 0.001 min⁻¹. In assay [3], this compound registered an IC50 of 1580 nM. Also, the IC50 in assay [3] (setting [12]) was found to be 150 nM.
Take `C=C=CCNCc1cc2cc(OCc3ccccc3)ccc2[nH]1` [FA-75]: in assay [1] (setting [7]), the Ki came to 347 nM. Besides, the “K^1cat / K1(10^-3)” value in assay [1] is recorded as 0.47 10^-3. In addition, in assay [1], the “K^1cat” value is 0.16 ± 0.02 min⁻¹. Further, the concentration for half-maximal inhibition (IC50) in assay [2] (setting [8]) was determined as 25 nM; in assay [2] (setting [9]), 398 nM; in assay [3] (setting [10]) it was 250 nM; in assay [3] (setting [11]), 3980 nM. Also, in assay [4], the “K1 MAO-A/K1 MAO-B” value is given as 63.0.
As for `C=C=CCNCc1cc2cc(OCc3ccccc3)ccc2n1C` [FA-97], in assay [1] (setting [7]), the Ki was 18.8 nM. Also, the “K^1cat / K1(10^-3)” value in assay [1] is 6.0 10^-3. In addition, the “K^1cat” value in assay [1] was 0.12 ± 0.002 min⁻¹. Moreover, the IC50 in assay [2] (setting [8]) was 12 nM; in assay [2] (setting [9]), 790 nM; in assay [3] (setting [10]) it was 25 nM; in assay [3] (setting [11]), 199 nM.
In the case of `C=C=CCN(C)Cc1cc2cc(OCc3ccccc3)ccc2n1C` [FA-67], the Ki in assay [1] is 26.5 nM. For the same compound, the IC50 in assay [3] was found to be 2500 nM; in assay [3] (setting [12]) it was 190 nM.
As for `C#CCN(CC#C)Cc1cc2cc(OCc3ccccc3)ccc2n1C` [FA-98], in assay [1] (setting [7]), the Ki amounted to 19.8 nM. Moreover, the “K^1cat / K1(10^-3)” value in assay [1] is recorded as 5.6 10^-3. In assay [1], the “K^1cat” value is 0.11 ± 0.01 min⁻¹. In addition, the values for the IC50 in assay [2] (setting [8]), in assay [2] (setting [9]) and in assay [3] (setting [10]) were 2500 nM, 19400 nM and 31000 nM, respectively. In addition, the “K1 MAO-A/K1 MAO-B” value in assay [4] is on record as 873.5.
In assay [1], `CC#CCN(C)Cc1cc2cc(OCc3ccccc3)ccc2n1C` [FA-66] showed a Ki of 5.4 nM. Besides, the IC50 in assay [3] came to 1250 nM; in assay [3] (setting [12]) it was 150 nM.
In the same order, the values of `C#CCN(C)Cc1cc2cc(OCc3ccccc3)ccc2n1C` [FA-65] are 18 nM, 1500 nM and 100 nM.
In the same order, the values of `C#CCN(C)Cc1cc2cc(OCc3ccccc3)ccc2[nH]1` [FA-87] are 54.5 nM, 630 nM and 0.79 nM.
Take `C#CCN(C)[C@H](C)Cc1ccccc1` [deprenyl, reference compound]: the “K^1cat” value in assay [1] worked out at 0.049 ± 0.01 min⁻¹. For the same compound, the remaining activity – broadly, what remains of the control signal, in per cent – at 4 mg/kg in assay [5] (ip, control = 100%) turned out to be 52.5%. Besides, the “MAO-A ACTIVITY” value in assay [5] (control 485) was 255. For the same compound, in assay [6], the IC50 worked out at 100 nM.
